Laboratory results reported in patent US20050244916A1, “Methods for predicting protein activity based on identification of multidimensional signatures” (priority 2004, published 2005).
“Also recorded” adds a separate entry of the source.

Legend:
[1] = literature statement, organisms not given; cited from earlier work
[2] = tested on: Staphylococcus aureus (ATCC 27217), Bacillus subtilis (ATCC 6633), Escherichia coli (strain ML-35); experiment: solid-phase radial diffusion antimicrobial assay, bacteria; type: cell-based; details: for antimicrobial activity compared with standard control defensin HNP-1: pH-specific, organism not specified (panel of bacteria and C. albicans); for antimicrobial activity against bacteria (zones of complete or partial inhibition): radial diffusion, pH 5.5 or pH 7.5, read after 24 h, S. aureus, B. subtilis, E. coli
Experimental: (§1) Standard radial diffusion assays were conducted using 10 μg of specified peptide: defensin HNP-1 (HNP); brazzein (BRZ); charybdotoxin (CTX); or metallothionein II (MTL). Recombinant brazzein reflecting the published 3-dimensional structure (1BRZ) as determined by nuclear magnetic resonance spectroscopy was kindly provided by Drs. J. L. Markley and F. M. Assadi-Porter, the University of Wisconsin 25. Charybdotoxin, metallothionein II, and defensin HNP-1 were obtained from commercial sources. Antimicrobial activity was assessed using a well-established solid-phase diffusion method as described by Tang et al., Infect. Immun. 70: 6524-6533 (2002). Assays included well characterized organisms: Staphylococcus aureus (ATCC 27217, Gram-positive coccus); Bacillus subtilis (ATCC 6633, Gram-positive bacillus); Escherichia coli (strain ML-35, Gram-negative bacillus); and Candida albicans (ATCC 36082, fungus). In brief, organisms were cultured to logarithmic phase and inoculated (106 colony forming units/ml) into buffered molecular-biology grade agarose at the indicated pH. Peptides resuspended in sterile deionized water were introduced into wells formed in the underlay, and incubated for 3 h at 37° C. Nutrient-containing overlay medium was then applied, and assays incubated at 37° C. or 30° C. for bacteria or fungi, respectively. After 24 h, zones of complete or partial inhibition were measured. All assays were repeated independently a minimum of two times at pH 5.5 (panels A-D) or pH 7.5 (panels E-H) to assess the influences of pH on peptide antimicrobial activities versus microorganisms. Histograms express mean (±standard deviation) zones of complete (blue) or incomplete (yellow) inhibition of growth. […] Note differences in scale.
(§2) These peptides were tested for antimicrobial activity against a panel of Gram-positive (Staphylococcus aureus, Bacillus subtilis) and Gram-negative (Escherichia coli) bacteria, and the fungus Candida albicans, using a well-established and sensitive in vitro assay [Antimicrobial activity was assessed using a well-established solid-phase diffusion method. Assays included well-characterized organisms: Staphylococcus aureus (ATCC 27217, Gram-positive); Bacillus subtilis (ATCC 6633, Gram-positive); Escherichia coli (strain ML-35, Gram-negative); and Candida albicans (ATCC 36082, fungus). In brief, organisms were cultured to logarithmic phase and inoculated at a density of 10^6 colony forming units/ml in buffered molecular grade agarose at the indicated pH. Five μg of peptide resuspended in sterile deionized water were introduced into wells formed in the underlay, and incubated for 3 h at 37° C. Nutrient-containing overlay medium was then applied, and assays incubated at 37° C. or 30° C. for bacteria or fungi, respectively. Defensin HNP-1 was tested in parallel as a standard control. After 24 h, zones of complete or partial inhibition were measured. All assays were repeated independently a minimum of two times. Tang et al., Infect. Immun. 70:6524 (2002) for detailed methodology.].

[3] = tested on: Candida albicans (ATCC 36082); experiment: solid-phase radial diffusion antimicrobial assay, fungus; type: cell-based; details: pH 5.5 or pH 7.5, read after 24 h
Experimental: as §1
as §2, with “Nutrient-containing overlay medium was then applied, and assays incubated at 37° C. or 30° C. for bacteria or fungi, respectively. Defensin HNP-1 was tested in parallel as a standard control.” left out, “All assays were repeated independently a minimum of two times. Tang et al., Infect. Immun. 70:6524 (2002) for detailed methodology.].” left out

Molecule	direct antimicrobial activity [1]	antimicrobial activity against bacteria (zones of complete or partial inhibition) [2]	antimicrobial activity against C. albicans (zones of complete or partial inhibition) [3]	further results
IP-10/CXCL10: interferon-γ inducible protein-10 kDa	direct antimicrobial activity			
ITAC/CXCL11: interferon-inducible T cell α chemoattractant	direct antimicrobial activity			
MIG/CXCL9: monokine induced by interferon-γ	direct antimicrobial activity			
PF-4: chemokine, human platelet factor-4	direct antimicrobial activity			
RANTES: β-chemokine, releasable upon activation normal T cell expressed/secreted	direct antimicrobial activity			
brazzein: sweetener protein from Pentadiplandra (J'Oblie berry); recombinant, structure 1BRZ (QDKCKKVYENYPVSKCQLANQCNYDCKLDKHARSGECFYDEKRNLQCICDYCEY; UniProt P56552 1-54, looked up)		direct antimicrobial activities; also recorded: previously unrecognized antimicrobial activity; also recorded: exerted direct antimicrobial activity	direct antimicrobial activities; also recorded: previously unrecognized antimicrobial activity; also recorded: exerted direct antimicrobial activity	antimicrobial activity compared with standard control defensin HNP-1 [2]: in some conditions exceeded that of HNP-1
charybdotoxin		direct antimicrobial activities; also recorded: previously unrecognized antimicrobial activity; also recorded: exerted direct antimicrobial activity	direct antimicrobial activities; also recorded: previously unrecognized antimicrobial activity; also recorded: exerted direct antimicrobial activity	antimicrobial activity compared with standard control defensin HNP-1 [2]: in some conditions exceeded that of HNP-1
metallothionein II: prototype metallothionein (Saccharomyces, 1AOO) lacking the γ-core motif; comparator predicted to lack antimicrobial activity (QNEGHECQCQCGSCKNNEQCQKSCSCPTGCNSDDKCPCGNKSEETKKSCCSGK; UniProt P0CX80 9-61, looked up)		devoid of antimicrobial activity; also recorded: failed to exert antimicrobial activity	devoid of antimicrobial activity; also recorded: failed to exert antimicrobial activity	antimicrobial activity against bacteria (zones of complete or partial inhibition) ([2]; listed as Metallothionein II): lacked antimicrobial activity; antimicrobial activity against C. albicans (zones of complete or partial inhibition) ([3]; listed as Metallothionein II): lacked antimicrobial activity
PBP: chemokine, platelet basic peptide (protein, UniProt P02775 35-128, looked up, Platelet basic protein, chemokine, platelet basic peptide) Platelet basic protein: SSTKGQTKRNLAKGKEESLDSDLYAELRCMCIKTTSGIHPKNIQSLEVIGKGTHCNQVEVIATLKDGRKICLDPDAPRIKKIVQKKLAGDESAD	direct antimicrobial activity			
